Reference: ChEMBL document CHEMBL1201862, “PubChem BioAssay data set” (2004)
“And” between values parts separate entries of the source, which are not always exact repeats. Equal entries are not always repeated.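 In this assay, cells in 96-well plates receive the compound at five concentrations for 48 hours. Endpoints are linearly interpolated between the surrounding concentrations. Abbreviation: GI50, concentration required for 50% inhibition of growth.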 The source made the active and inactive calls. No stated cut-off is given here; in the data, active = GI50 up to about 1.1 µM and inactive = higher.

Assays:
Experiment in all cases: NCI anticancer screen, dose series, 48 h
Malme-3M = test system: Malme-3M
NCI-H23 = test system: NCI-H23
SK-MEL-5 = test system: SK-MEL-5
NCI-H226 = test system: NCI-H226
IGROV-1 = test system: IGROV-1
HOP-62 = test system: HOP-62
NCI-H460 = test system: NCI-H460
A549 = test system: A549
OVCAR-4 = test system: OVCAR-4
HT-29 = test system: HT-29
CCRF-CEM = test system: CCRF-CEM
HCC 2998 = test system: HCC 2998
SW-620 = test system: SW-620
UO-31 = test system: UO-31
M19-MEL = test system: M19-MEL
MOLT-4 = test system: MOLT-4
SK-OV-3 = test system: SK-OV-3
SF-539 = test system: SF-539
OVCAR-8 = test system: OVCAR-8
SNB-75 = test system: SNB-75
NCI/ADR-RES = test system: NCI/ADR-RES
KM12 = test system: KM12
EKVX = test system: EKVX
U-251 = test system: U-251
SF-268 = test system: SF-268
SNB-19 = test system: SNB-19
SNB-78 = test system: SNB-78
SF-295 = test system: SF-295
HCT-116 = test system: HCT-116
DMS-273 = test system: DMS-273
DLD-1 = test system: DLD-1
LOX IMVI = test system: LOX IMVI
CAKI-1 = test system: CAKI-1
NCI-H522 = test system: NCI-H522
DMS-114 = test system: DMS-114
SN12C = test system: SN12C
OVCAR-3 = test system: OVCAR-3
UACC-257 = test system: UACC-257
A498 = test system: A498
HCT-15 = test system: HCT-15
HOP-92 = test system: HOP-92
MCF7 = test system: MCF7
UACC-62 = test system: UACC-62
SK-MEL-2 = test system: SK-MEL-2
HOP-18 = test system: HOP-18
RXF 393 = test system: RXF 393
RPMI-8226 = test system: RPMI-8226
OVCAR-5 = test system: OVCAR-5
COLO 205 = test system: COLO 205
SK-MEL-28 = test system: SK-MEL-28
KM-20L2 = test system: KM-20L2
K562 = test system: K562
MDA-MB-231 = test system: MDA-MB-231
XF498 = test system: XF498
SR = test system: SR
DU-145 = test system: DU-145
M14 = test system: M14
T47D = test system: T47D
MDA-N = test system: MDA-N
Hs-578T = test system: Hs-578T
MDA-MB-435 = test system: MDA-MB-435
HL-60 = test system: HL-60
LXFL 529 = test system: LXFL 529
ACHN = test system: ACHN
786-0 = test system: 786-0
TK-10 = test system: TK-10

## C[C@@]12CC[C@H]3[C@@H]4CCC(=O)N[C@@]4(C)CC[C@@H]3[C@@]1(C)CC[C@H](OC(=O)Cc1ccc(N(CCCl)CCCl)cc1)C2
Malme-3M
  GI50: 19.5 µM (inactive)
NCI-H23
  GI50: 15.1 µM (inactive)
SK-MEL-5
  GI50: 13.7 µM (inactive)
NCI-H226
  GI50: 17.2 µM (inactive)
IGROV-1
  GI50: 16.2 µM (inactive)
HOP-62
  GI50: 16.8 µM (inactive)
NCI-H460
  GI50: 13.7 µM (inactive)
A549
  GI50: 15.7 µM (inactive)
OVCAR-4
  GI50: 18.2 µM (inactive)
HT-29
  GI50: 14.7 µM (inactive)
CCRF-CEM
  GI50: 11.5 µM (inactive)
HCC 2998
  GI50: 16.3 µM (inactive)
SW-620
  GI50: 18.2 µM (inactive)
UO-31
  GI50: 17.8 µM (inactive)
M19-MEL
  GI50: 17.5 µM (inactive)
MOLT-4
  GI50: 10.1 µM (inactive)
SK-OV-3
  GI50: 14.1 µM (inactive)
SF-539
  GI50: 17.3 µM (inactive)
OVCAR-8
  GI50: 16.7 µM (inactive)
SNB-75
  GI50: 18.3 µM (inactive)
NCI/ADR-RES
  GI50: 18.3 µM (inactive)
KM12
  GI50: 22.7 µM (inactive)
EKVX
  GI50: 16.4 µM (inactive)
U-251
  GI50: 15 µM (inactive)
SF-268
  GI50: 15.8 µM (inactive)
SNB-19
  GI50: > 10 µM (inactive)
SNB-78
  GI50: 19.5 µM (inactive)
SF-295
  GI50: 17.5 µM (inactive)
HCT-116
  GI50: 16.4 µM (inactive)
DMS-273
  GI50: 15.2 µM (inactive)
DLD-1
  GI50: 19.7 µM (inactive)
LOX IMVI
  GI50: 13.8 µM (inactive)
CAKI-1
  GI50: 16.5 µM (inactive)
NCI-H522
  GI50: 17.7 µM (inactive)
DMS-114
  GI50: 15 µM (inactive)
SN12C
  GI50: 14.2 µM (inactive)
OVCAR-3
  GI50: 17.9 µM (inactive)
UACC-257
  GI50: 24.8 µM (inactive)
A498
  GI50: 18.7 µM (inactive)
HCT-15
  GI50: 17.6 µM
HOP-92
  GI50: 19 µM (inactive)
MCF7
  GI50: 11.7 µM (inactive)
UACC-62
  GI50: 15.5 µM (inactive)
SK-MEL-2
  GI50: 51.1 µM (inactive)
HOP-18
  GI50: 18 µM (inactive)
RXF 393
  GI50: 16.5 µM (inactive)
RPMI-8226
  GI50: 18.4 µM (inactive)
OVCAR-5
  GI50: 17.3 µM (inactive)
COLO 205
  GI50: 20.4 µM (inactive)
SK-MEL-28
  GI50: 18.4 µM (inactive)
KM-20L2
  GI50: 18.2 µM (inactive)
K562
  GI50: 19.5 µM (inactive)

## CSc1nc(C)c(Br)c(=O)n1C1OC(COC(C)=O)C(OC(C)=O)C(OC(C)=O)C1OC(C)=O (stereo not drawn)
MDA-MB-231
  GI50: 63.8 µM (inactive)
HOP-62
  GI50: 26.8 µM (inactive) and 22 µM (inactive)
NCI-H460
  GI50: > 100 µM (inactive) and 97.1 µM (inactive)
HT-29
  GI50: > 100 µM (inactive)
CCRF-CEM
  GI50: > 100 µM (inactive)
XF498
  GI50: 21.2 µM (inactive)
HCC 2998
  GI50: > 100 µM (inactive)
SW-620
  GI50: > 100 µM (inactive)
MOLT-4
  GI50: > 100 µM (inactive)
NCI/ADR-RES
  GI50: > 100 µM (inactive)
SR
  GI50: > 100 µM (inactive)
KM12
  GI50: > 100 µM (inactive)
U-251
  GI50: 39.1 µM (inactive) and 22.4 µM (inactive)
SF-268
  GI50: 34.1 µM (inactive) and 19.6 µM (inactive)
SF-295
  GI50: 24.2 µM (inactive) and 26.9 µM (inactive)
DU-145
  GI50: > 100 µM (inactive)
M14
  GI50: > 100 µM (inactive)
DMS-273
  GI50: 27.7 µM (inactive)
DLD-1
  GI50: > 100 µM (inactive)
LOX IMVI
  GI50: > 100 µM (inactive)
SN12C
  GI50: > 100 µM (inactive)
OVCAR-3
  GI50: > 100 µM (inactive)
T47D
  GI50: > 100 µM (inactive)
HCT-15
  GI50: > 100 µM
HOP-92
  GI50: 20.1 µM (inactive) and 13.6 µM (inactive)
MDA-N
  GI50: > 100 µM (inactive)
MCF7
  GI50: > 100 µM (inactive)
SK-MEL-2
  GI50: 56.5 µM (inactive)
HOP-18
  GI50: 60.4 µM (inactive)
RXF 393
  GI50: 20.5 µM (inactive) and 19.9 µM (inactive)
Hs-578T
  GI50: 42.9 µM (inactive)
RPMI-8226
  GI50: > 100 µM (inactive)
OVCAR-5
  GI50: > 100 µM (inactive) and 94.2 µM (inactive)
MDA-MB-435
  GI50: > 100 µM (inactive)
COLO 205
  GI50: > 100 µM (inactive)
KM-20L2
  GI50: > 100 µM (inactive)
K562
  GI50: > 100 µM (inactive)
HL-60
  GI50: > 100 µM (inactive)

## O=C(Cc1ccccc1)NN1C(=O)C(Cl)C1c1ccccc1 (stereo not drawn)
LXFL 529
  GI50: 20 µM (inactive)
ACHN
  GI50: > 100 µM (inactive)
Malme-3M
  GI50: > 100 µM (inactive)
NCI-H23
  GI50: 61.7 µM (inactive)
SK-MEL-5
  GI50: 74.1 µM (inactive)
NCI-H226
  GI50: > 100 µM (inactive)
IGROV-1
  GI50: 66.4 µM (inactive)
HOP-62
  GI50: > 100 µM (inactive)
NCI-H460
  GI50: > 100 µM (inactive)
A549
  GI50: > 100 µM (inactive)
OVCAR-4
  GI50: 39.1 µM (inactive)
HT-29
  GI50: > 100 µM (inactive)
CCRF-CEM
  GI50: 18.6 µM (inactive)
XF498
  GI50: 24.6 µM (inactive)
HCC 2998
  GI50: > 100 µM (inactive)
SW-620
  GI50: > 100 µM (inactive)
UO-31
  GI50: 88.7 µM (inactive)
M19-MEL
  GI50: > 100 µM (inactive)
MOLT-4
  GI50: 23 µM (inactive)
SK-OV-3
  GI50: > 100 µM (inactive)
OVCAR-8
  GI50: 79.3 µM (inactive)
SNB-75
  GI50: 55.7 µM (inactive)
SR
  GI50: 18.3 µM (inactive)
KM12
  GI50: 66.4 µM (inactive)
EKVX
  GI50: > 100 µM (inactive)
U-251
  GI50: > 100 µM (inactive)
SF-268
  GI50: > 100 µM (inactive)
SNB-19
  GI50: > 100 µM (inactive)
SNB-78
  GI50: > 100 µM (inactive)
SF-295
  GI50: > 100 µM (inactive)
M14
  GI50: > 100 µM (inactive)
HCT-116
  GI50: > 100 µM (inactive)
DLD-1
  GI50: > 100 µM (inactive)
786-0
  GI50: > 100 µM (inactive)
CAKI-1
  GI50: > 100 µM (inactive)
NCI-H522
  GI50: 2.05 µM (inactive)
DMS-114
  GI50: 33.9 µM (inactive)
SN12C
  GI50: 35.9 µM (inactive)
OVCAR-3
  GI50: 37.2 µM (inactive)
UACC-257
  GI50: > 100 µM (inactive)
HCT-15
  GI50: > 100 µM
UACC-62
  GI50: 77.4 µM (inactive)
SK-MEL-2
  GI50: > 100 µM (inactive)
HOP-18
  GI50: > 100 µM (inactive)
RXF 393
  GI50: 77.6 µM (inactive)
TK-10
  GI50: > 100 µM (inactive)
RPMI-8226
  GI50: 18.7 µM (inactive)
OVCAR-5
  GI50: > 100 µM (inactive)
COLO 205
  GI50: > 100 µM (inactive)
SK-MEL-28
  GI50: > 100 µM (inactive)
KM-20L2
  GI50: > 100 µM (inactive)
K562
  GI50: 37.9 µM (inactive)
HL-60
  GI50: 27.6 µM (inactive)

## Cc1nc2ccccc2c(=O)n1/N=C(\N=N\c1cccc(Cl)c1)c1ccccc1Cl
LXFL 529
  GI50: > 10 µM (inactive)
NCI-H23
  GI50: 64.9 µM (inactive)
SK-MEL-5
  GI50: > 100 µM (inactive)
IGROV-1
  GI50: > 10 µM (inactive)
HOP-62
  GI50: 37.8 µM (inactive)
NCI-H460
  GI50: 49.9 µM (inactive)
A549
  GI50: > 100 µM (inactive)
HT-29
  GI50: > 100 µM (inactive)
CCRF-CEM
  GI50: > 10 µM (inactive)
XF498
  GI50: 2.29 µM (inactive)
SW-620
  GI50: > 100 µM (inactive)
UO-31
  GI50: 99.3 µM (inactive)
M19-MEL
  GI50: > 100 µM (inactive)
MOLT-4
  GI50: > 10 µM (inactive)
SK-OV-3
  GI50: 25.8 µM (inactive)
SF-539
  GI50: 25.3 µM (inactive)
OVCAR-8
  GI50: > 100 µM (inactive)
EKVX
  GI50: 69.8 µM (inactive)
U-251
  GI50: 37.9 µM (inactive)
SF-295
  GI50: 30.4 µM (inactive)
M14
  GI50: > 100 µM (inactive)
HCT-116
  GI50: 36 µM (inactive)
DMS-273
  GI50: 50.2 µM (inactive)
DLD-1
  GI50: 75.5 µM (inactive)
786-0
  GI50: 83 µM (inactive)
LOX IMVI
  GI50: > 100 µM (inactive)
CAKI-1
  GI50: > 100 µM (inactive)
NCI-H522
  GI50: 29 µM (inactive)
SN12C
  GI50: > 100 µM (inactive)
HCT-15
  GI50: > 100 µM
HOP-92
  GI50: 29.9 µM (inactive)
UACC-62
  GI50: > 100 µM (inactive)
HOP-18
  GI50: 1.48 µM (inactive)
RXF 393
  GI50: 21.7 µM (inactive)
TK-10
  GI50: 49.4 µM (inactive)
RPMI-8226
  GI50: > 100 µM (inactive)
COLO 205
  GI50: > 10 µM (inactive)
KM-20L2
  GI50: > 100 µM (inactive)
K562
  GI50: 0.57 µM (active)
HL-60
  GI50: > 10 µM (inactive)
